± gives the expanded uncertainty stated by the source.
Details: Liquid, Vibrating tube method

CCCCCCCC/C=C\CCCCCCCC(=O)OC [methyl cis-9-octadecenoate]
Details	mass density [kg/m3]
270 K, 490 kPa	892.3 ± 0.8
270 K, 990 kPa	892.6 ± 0.8
270 K, 1990 kPa	893.2 ± 0.8
270 K, 2990 kPa	893.7 ± 0.8
270 K, 3990 kPa	894.3 ± 0.8
270 K, 4990 kPa	894.8 ± 0.8
270 K, 9990 kPa	897.4 ± 0.8
270 K, 19990 kPa	902.4 ± 0.9
270 K, 29990 kPa	907.1 ± 0.9
270 K, 39990 kPa	911.7 ± 0.9
270 K, 49830 kPa	915.9 ± 0.9
290 K, 490 kPa	877.7 ± 0.8
290 K, 1000 kPa	878 ± 0.8
290 K, 2000 kPa	878.6 ± 0.8
290 K, 3000 kPa	879.2 ± 0.8
290 K, 3990 kPa	879.8 ± 0.8
290 K, 4990 kPa	880.4 ± 0.8
290 K, 10000 kPa	883.3 ± 0.9
290 K, 19990 kPa	888.7 ± 0.9
290 K, 29990 kPa	893.8 ± 0.9
290 K, 39990 kPa	898.7 ± 0.9
290 K, 49960 kPa	903.4 ± 0.9
310 K, 490 kPa	863.3 ± 0.8
310 K, 990 kPa	863.6 ± 0.8
310 K, 2000 kPa	864.3 ± 0.8
310 K, 3000 kPa	865 ± 0.8
310 K, 4000 kPa	865.6 ± 0.8
310 K, 5000 kPa	866.2 ± 0.8
310 K, 9990 kPa	869.3 ± 0.9
310 K, 20000 kPa	875.3 ± 0.9
310 K, 29990 kPa	880.8 ± 0.9
310 K, 39990 kPa	886.1 ± 0.9
310 K, 49990 kPa	891.1 ± 0.9
330 K, 500 kPa	849 ± 0.8
330 K, 1000 kPa	849.3 ± 0.8
330 K, 2000 kPa	850.1 ± 0.8
330 K, 3000 kPa	850.8 ± 0.8
330 K, 3990 kPa	851.5 ± 0.8
330 K, 4990 kPa	852.2 ± 0.8
330 K, 10000 kPa	855.6 ± 0.9
330 K, 19990 kPa	862 ± 0.9
330 K, 29990 kPa	868 ± 0.9
330 K, 39990 kPa	873.6 ± 0.9
330 K, 49990 kPa	878.9 ± 0.9
350 K, 500 kPa	834.6 ± 0.8
350 K, 990 kPa	835 ± 0.8
350 K, 2000 kPa	835.8 ± 0.8
350 K, 2990 kPa	836.6 ± 0.8
350 K, 3990 kPa	837.3 ± 0.8
350 K, 5000 kPa	838.1 ± 0.8
350 K, 9990 kPa	841.8 ± 0.9
350 K, 20000 kPa	848.8 ± 0.9
350 K, 30000 kPa	855.3 ± 0.9
350 K, 40000 kPa	861.3 ± 0.9
350 K, 49980 kPa	867 ± 0.9
370 K, 500 kPa	820.1 ± 0.8
370 K, 990 kPa	820.6 ± 0.8
370 K, 1990 kPa	821.4 ± 0.8
370 K, 2990 kPa	822.3 ± 0.8
370 K, 3990 kPa	823.2 ± 0.8
370 K, 5010 kPa	824 ± 0.8
370 K, 10000 kPa	828.1 ± 0.9
370 K, 20010 kPa	835.7 ± 0.9
370 K, 29990 kPa	842.6 ± 0.9
370 K, 39990 kPa	849.1 ± 0.9
370 K, 49970 kPa	855.1 ± 0.9
390 K, 490 kPa	805.7 ± 0.8
390 K, 990 kPa	806.2 ± 0.8
390 K, 2000 kPa	807.1 ± 0.8
390 K, 3000 kPa	808.1 ± 0.8
390 K, 3990 kPa	809 ± 0.8
390 K, 5000 kPa	810 ± 0.9
390 K, 10000 kPa	814.5 ± 0.9
390 K, 19990 kPa	822.7 ± 0.9
390 K, 29980 kPa	830.2 ± 0.9
390 K, 40000 kPa	837.2 ± 0.9
390 K, 49990 kPa	843.6 ± 1
410 K, 490 kPa	791 ± 0.8
410 K, 990 kPa	791.6 ± 0.8
410 K, 2000 kPa	792.7 ± 0.8
410 K, 3000 kPa	793.7 ± 0.8
410 K, 3990 kPa	794.8 ± 0.8
410 K, 5000 kPa	795.8 ± 0.9
410 K, 10000 kPa	800.8 ± 0.9
410 K, 20000 kPa	809.8 ± 0.9
410 K, 30000 kPa	817.9 ± 0.9
410 K, 39990 kPa	825.3 ± 0.9
410 K, 50000 kPa	832.2 ± 1
430 K, 500 kPa	776.2 ± 0.8
430 K, 1000 kPa	776.8 ± 0.8
430 K, 1990 kPa	778 ± 0.8
430 K, 3000 kPa	779.2 ± 0.8
430 K, 3990 kPa	780.3 ± 0.9
430 K, 4990 kPa	781.5 ± 0.9
430 K, 9990 kPa	786.9 ± 0.9
430 K, 19990 kPa	796.7 ± 0.9
430 K, 29990 kPa	805.5 ± 0.9
430 K, 39990 kPa	813.5 ± 0.9
430 K, 49990 kPa	820.8 ± 1
450 K, 490 kPa	761.2 ± 0.8
450 K, 1000 kPa	761.9 ± 0.8
450 K, 1990 kPa	763.2 ± 0.8
450 K, 2990 kPa	764.5 ± 0.9
450 K, 3990 kPa	765.8 ± 0.9
450 K, 5000 kPa	767.1 ± 0.9
450 K, 10000 kPa	773.1 ± 0.9
450 K, 20000 kPa	783.9 ± 0.9
450 K, 29990 kPa	793.3 ± 0.9
450 K, 39990 kPa	801.9 ± 1
450 K, 50010 kPa	809.7 ± 1
470 K, 490 kPa	746.3 ± 0.8
470 K, 990 kPa	747 ± 0.8
470 K, 2000 kPa	748.6 ± 0.9
470 K, 2990 kPa	750 ± 0.9
470 K, 3990 kPa	751.5 ± 0.9
470 K, 5010 kPa	752.9 ± 0.9
470 K, 10000 kPa	759.5 ± 0.9
470 K, 19990 kPa	771.2 ± 0.9
470 K, 29990 kPa	781.5 ± 0.9
470 K, 39990 kPa	790.6 ± 1
470 K, 49970 kPa	798.8 ± 1

Source: the NIST ThermoML archive (doi:10.1021/je2008582)
